Values quoted from earlier work, collected in patent US20120157536A1, “COMPOSITION FOR TRANSDERMAL ADMINISTRATION OF NON-STEROIDAL ANTI-FLAMMATORY DRUG” (Polytherapeutics, Inc., priority 2010, published 2012).

Diclofenac Clearance, Cl (Goodman & Gilman): 4.2 mL/min/kg
SMILES: O=C(O)Cc1ccccc1Nc1c(Cl)cccc1Cl [Diclofenac, 2-(2,6-dichloro-anilino)-benzeneacetic acid]
Minimum effective diclofenac blood concentration (Nishihata et al. 1988): 50 ng/mL
